{"source": "patent US7067586B2", "about": "“Methods of making ABA-type block copolymers having a random block of hydrophobic and hydrophilic monomers” (Symyx Technologies, Inc., priority 2000, dated 2006)", "origin": "cited, not measured here", "data": [{"settings": "octanol-water partition coefficient of the monomer; approximate values from web-site estimation program or Hansch et al.", "values": [{"smiles": "C=CC(=O)OCCO", "note": "[2-hydroxyethylacrylate]", "log P": "about −0.21"}, {"smiles": "C=C(C)C(=O)OCCO", "note": "[2-hydroxyethylmethacrylate]", "log P": "about 0.47"}, {"smiles": "C=CC(=O)OCCOC", "note": "[2-methoxyethylacrylate]", "log P": "about 0.45"}, {"smiles": "C=CC(=O)NC(C)(C)C", "note": "[N-t-butyl acrylamide]", "log P": "~1.02"}, {"smiles": "C=CCO", "note": "[allyl alcohol]", "log P": "~0.17"}, {"smiles": "C=C(C)C(=O)OCCN(C)C", "note": "[dimethyl aminoethyl methacrylate]", "log P": "~0.97"}, {"smiles": "C=C(C)C(=O)OCC(C)C", "note": "[isobutyl methacrylate]", "log P": "~2.66"}, {"smiles": "C=C(CC(=O)O)C(=O)O", "note": "[itaconic acid]", "log P": "~−0.34"}, {"smiles": "O=C(O)/C=C\\C(=O)O", "note": "[maleic acid]", "log P": "~−0.48"}, {"smiles": "C=C(C)C(N)=O", "note": "[methacrylamide]", "log P": "~−0.26"}, {"smiles": "C=C(C)C(=O)O", "note": "[methacrylic acid]", "log P": "~0.93"}, {"smiles": "C=C(C)C(=O)OC", "note": "[methyl methacrylate]", "log P": "~1.38"}, {"smiles": "C=C(C)C(=O)OCCCC", "note": "[n-butyl methacrylate]", "log P": "~2.36"}, {"smiles": "C=Cc1ccccc1", "note": "[styrene]", "log P": "about 2.95"}, {"smiles": "C=C(C)C(=O)OC(C)(C)C", "note": "[t-butyl methacrylate]", "log P": "~2.54"}, {"smiles": "C=CC(=O)OC(C)(C)C", "note": "[tert-butylacrylate]", "log P": "about 2.09"}]}, {"settings": "octanol-water partition coefficient of the monomer; approximate values from web-site estimation program or Hansch et al.; listed as t-butyl acrylate", "values": [{"smiles": "C=CC(=O)OC(C)(C)C", "note": "[tert-butylacrylate]", "log P": "~2.09"}]}]}
